Experiments:
[1] = tested on: T1, PI3K; type: biochemical; conditions: purified recombinant enzyme, ATP 1 uM, 1 h room temperature; read-out: IC50 against PI3K
T1 construct: other: purified recombinant enzyme, ATP 1 uM, 1 h room temperature
Procedure: The compound was serially diluted in 100% DMSO. The kinase reaction was incubated for 1 h at room temperature, and the reaction was terminated by the addition of PBS. IC50 values were subsequently determined using sigmoidal dose-response curve fit (variable slope).

[2] = Aqueous solubility at physiological pH; type: physicochemical; conditions: aqueous medium at physiological pH, pH 7.4, aqueous buffer
[3] = in vitro; conditions: human, Caco-2
[4] = tested on: range of cell lines; experiment: Cellular proliferation inhibition (Alamar Blue); type: cell-based; conditions: 96 h; 4 days incubation, range of cell lines utilized
Procedure: Cells were seeded at optimal density in a 96 well plate and incubated for 4 days in the presence of test compound. Alamar Blue™ was subsequently added to the assay medium, and cells were incubated for 6 h before reading at 544 nm excitation, 590 nm emission. EC50 values were calculated using a sigmoidal dose response curve fit.

[5] = Plasma protein binding (equilibrium dialysis); type: in vitro ADME; conditions: 10% plasma (v/v in buffer), 37° C., read-out: fraction unbound (Fu)
Procedure: Solutions of test compound (5 um, 0.5% final DMSO concentration) were prepared in buffer and 10% plasma (v/v in buffer). A 96 well HT dialysis plate was assembled so that each well was divided in two by a semi-permeable cellulose membrane. The buffer solution was added to one side of the membrane and the plasma solution to the other side; incubations were then conducted at 37° C. over 2 h in triplicate. The cells were subsequently emptied, and the solutions for each batch of compounds were combined into two groups (plasma-free and plasma-containing) then analysed by LC-MSMS using two sets of calibration standards for plasma-free (6 points) and plasma-containing solutions (7 points).

[6] = target: T2, CYP450 1A2 (Homo sapiens, UniProt P05177); experiment: Cytochrome P450 inhibition; type: in vitro ADME; conditions: top concentration 100 uM
T2 sequence (P05177 1-516): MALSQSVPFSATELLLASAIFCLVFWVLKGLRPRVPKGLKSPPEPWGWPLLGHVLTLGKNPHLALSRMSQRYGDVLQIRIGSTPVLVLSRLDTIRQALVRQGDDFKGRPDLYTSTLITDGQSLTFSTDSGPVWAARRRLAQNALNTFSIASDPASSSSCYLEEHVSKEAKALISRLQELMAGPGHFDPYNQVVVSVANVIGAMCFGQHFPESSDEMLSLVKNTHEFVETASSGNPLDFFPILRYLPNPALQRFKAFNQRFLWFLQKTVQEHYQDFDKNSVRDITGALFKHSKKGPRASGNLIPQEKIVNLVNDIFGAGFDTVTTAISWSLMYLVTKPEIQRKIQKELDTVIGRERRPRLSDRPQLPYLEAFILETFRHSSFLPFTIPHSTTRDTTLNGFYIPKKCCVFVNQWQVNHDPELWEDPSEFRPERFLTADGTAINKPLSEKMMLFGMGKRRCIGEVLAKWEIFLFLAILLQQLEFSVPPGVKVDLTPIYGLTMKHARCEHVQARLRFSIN
Excerpt: (§1) Standard inhibitors (furafylline, sulfaphenazole, tranylcypromine, quinidine, ketoconazole) were used as controls. Plates were read using a BMG LabTechnologies PolarStar in fluorescence mode.

[7] = target: CYP450 3A4 (Homo sapiens, UniProt P08684); experiment: Cytochrome P450 inhibition; type: in vitro ADME; conditions: top concentration 100 uM
Excerpt: as §1

[8] = target: CYP450 2C19 (Homo sapiens, UniProt P33261); experiment: Cytochrome P450 inhibition; type: in vitro ADME; conditions: top concentration 100 uM
Excerpt: as §1

[9] = target: CYP450 2C9 (Homo sapiens, UniProt P11712); experiment: Cytochrome P450 inhibition; type: in vitro ADME; conditions: top concentration 100 uM
Excerpt: as §1

[10] = target: CYP450 2D6 (Homo sapiens, UniProt P10635); experiment: Cytochrome P450 inhibition; type: in vitro ADME; conditions: top concentration 100 uM
Excerpt: as §1

CYP450 2D6, sequence (P10635 whole entry): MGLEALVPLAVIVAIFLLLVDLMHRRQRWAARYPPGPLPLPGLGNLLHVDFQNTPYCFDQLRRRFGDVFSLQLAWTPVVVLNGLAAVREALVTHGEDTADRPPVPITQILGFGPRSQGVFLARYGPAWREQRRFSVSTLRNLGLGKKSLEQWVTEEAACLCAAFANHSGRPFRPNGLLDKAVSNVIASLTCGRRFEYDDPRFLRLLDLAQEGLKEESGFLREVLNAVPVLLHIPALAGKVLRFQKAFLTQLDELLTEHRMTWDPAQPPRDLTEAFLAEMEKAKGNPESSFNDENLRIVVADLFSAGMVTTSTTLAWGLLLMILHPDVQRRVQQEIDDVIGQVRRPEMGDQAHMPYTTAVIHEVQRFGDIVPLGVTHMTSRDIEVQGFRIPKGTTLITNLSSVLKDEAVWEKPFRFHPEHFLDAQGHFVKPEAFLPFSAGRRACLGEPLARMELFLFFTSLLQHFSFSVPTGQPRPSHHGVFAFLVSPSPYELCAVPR
CYP450 2C9, sequence (P11712 whole entry): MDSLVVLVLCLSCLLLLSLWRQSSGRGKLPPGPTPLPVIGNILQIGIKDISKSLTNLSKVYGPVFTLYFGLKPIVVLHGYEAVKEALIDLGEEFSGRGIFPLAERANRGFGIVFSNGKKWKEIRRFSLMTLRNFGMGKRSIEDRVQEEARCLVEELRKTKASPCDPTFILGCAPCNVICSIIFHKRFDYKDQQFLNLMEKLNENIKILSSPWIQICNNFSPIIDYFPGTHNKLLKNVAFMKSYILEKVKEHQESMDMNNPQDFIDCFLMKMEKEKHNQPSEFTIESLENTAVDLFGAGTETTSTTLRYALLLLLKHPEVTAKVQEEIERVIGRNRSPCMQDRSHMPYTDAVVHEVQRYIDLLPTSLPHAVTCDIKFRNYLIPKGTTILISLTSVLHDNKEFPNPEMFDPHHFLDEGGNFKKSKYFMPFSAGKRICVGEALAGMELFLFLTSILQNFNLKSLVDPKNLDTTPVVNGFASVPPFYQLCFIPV
CYP450 3A4, sequence (P08684 whole entry): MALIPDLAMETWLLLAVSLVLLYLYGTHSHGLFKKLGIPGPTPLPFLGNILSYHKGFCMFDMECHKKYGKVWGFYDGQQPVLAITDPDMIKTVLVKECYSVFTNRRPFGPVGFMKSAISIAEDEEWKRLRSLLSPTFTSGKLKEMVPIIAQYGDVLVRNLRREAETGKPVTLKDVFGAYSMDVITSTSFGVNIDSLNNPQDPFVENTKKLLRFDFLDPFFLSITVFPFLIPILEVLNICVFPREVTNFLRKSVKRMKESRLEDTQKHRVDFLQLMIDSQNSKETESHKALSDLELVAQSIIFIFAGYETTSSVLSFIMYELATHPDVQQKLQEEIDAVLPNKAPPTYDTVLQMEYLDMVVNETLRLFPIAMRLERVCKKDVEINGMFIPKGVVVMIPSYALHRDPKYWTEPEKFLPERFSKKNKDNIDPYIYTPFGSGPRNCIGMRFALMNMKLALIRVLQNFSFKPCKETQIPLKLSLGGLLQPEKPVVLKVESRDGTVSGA
CYP450 2C19, sequence (P33261 whole entry): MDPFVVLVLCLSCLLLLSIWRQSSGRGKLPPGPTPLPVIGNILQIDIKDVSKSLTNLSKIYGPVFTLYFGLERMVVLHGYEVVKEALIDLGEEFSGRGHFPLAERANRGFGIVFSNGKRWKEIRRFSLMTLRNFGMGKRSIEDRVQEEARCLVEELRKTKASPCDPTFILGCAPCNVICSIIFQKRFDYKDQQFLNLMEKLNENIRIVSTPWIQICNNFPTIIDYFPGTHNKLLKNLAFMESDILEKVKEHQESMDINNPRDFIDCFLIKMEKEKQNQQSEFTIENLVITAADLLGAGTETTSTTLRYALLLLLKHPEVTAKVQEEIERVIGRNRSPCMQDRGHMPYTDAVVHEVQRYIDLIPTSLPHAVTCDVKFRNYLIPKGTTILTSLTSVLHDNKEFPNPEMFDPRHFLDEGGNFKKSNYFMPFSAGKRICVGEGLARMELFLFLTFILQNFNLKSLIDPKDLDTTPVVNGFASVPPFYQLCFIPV

CS(=O)(=O)N1CCN(Cc2cc3nc(-c4cccc5[nH]ncc45)nc(N4CCOCC4)c3s2)CC1 [compound of the invention, 2-(1H-Indazol-4-yl)-6-(4-methanesulfonyl-piperazin-1-ylmethyl)-4-morpholin-4-yl-thieno[3,2-d]pyrimidine]
IC50 [1]: […] | solubility [2]: > 100 µM | Papp [3]: ≥ 1 ×10⁻⁶ cm/s | EC50 [4]: ≤ 50 µM | fraction unbound at 2 h, 5 um [5]: ≥ 0.1 | IC50 [6]: ≥ 5 µM | IC50 [7]: ≥ 5 µM | IC50 [8]: ≥ 5 µM | IC50 [9]: ≥ 5 µM | IC50 [10]: ≥ 5 µM
